The record followed here is ChEMBL document CHEMBL1201862, “PubChem BioAssay data set” (2004).

Activity calls are given as the source filed them.

Test [1] has as its target Bifunctional protein GlmU (Mycobacterium tuberculosis, UniProt P9WMN3). Briefly: Inhibitors of Mycobacterial Glucosamine-1-phosphate acetyl transferase (GlmU). Secondary screen. Details: species or system Mycobacterium tuberculosis H37Rv.
In another test the target is NADPH oxidase 1 (Homo sapiens, UniProt Q9Y5S8). In kind it is functional, cell-based.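 Further: Cell-based assay with luminescence read-out, IC50 derived from inhibitor dose-response curves; intracellular ROS from endogenous NOX1 in intact HT29 colon cancer cells; potency of inhibitors that lower the ROS luminescence signal.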
A short description of test [2]: HIV-1 Vif–A3G interaction blockers – biochemical, TR-FRET, GST-Vif 1-94, biotin-A3G peptide, dose response retest, primary screen (AID 1117319).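 Further: TR-FRET signal of purified GST-Vif binding a biotinylated A3G peptide; inhibitors lower the FRET signal by blocking Vif and A3G binding.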 In kind it is functional.
For the next test, the target named is T1, CAAX prenyl protease 2 (Saccharomyces cerevisiae S288c, UniProt Q03530).
T1 sequence (Q03530 whole entry): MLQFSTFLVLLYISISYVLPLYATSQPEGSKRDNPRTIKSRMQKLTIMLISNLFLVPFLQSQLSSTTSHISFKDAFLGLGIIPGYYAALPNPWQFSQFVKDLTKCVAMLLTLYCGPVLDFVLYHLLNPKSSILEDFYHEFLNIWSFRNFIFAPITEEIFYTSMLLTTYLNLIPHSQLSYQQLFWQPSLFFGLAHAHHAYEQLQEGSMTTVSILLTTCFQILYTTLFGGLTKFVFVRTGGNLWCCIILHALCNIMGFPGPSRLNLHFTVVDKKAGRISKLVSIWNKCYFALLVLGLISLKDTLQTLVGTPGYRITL
It is filed as biochemical.

Another test has as its target Protein Tat (Human immunodeficiency virus type 1 group M subtype B (isolate HXB2)(HIV-1), UniProt P04608). It is filed as functional.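 Further: tat binding to TAR RNA read out by fluorescence polarization.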
For a further test, the target named is Trypsin (Sus scrofa, UniProt P00761). Briefly: trypsin protease activity blockade – biochemical, quenched peptide fluorescence, cherry-pick, selectivity assay for Rce1 protease inhibitor project, dose response (AID 488789).
Test [3] can be described thus: Luminescence Cell-Based Dose Response to Identify Activators of 5'UTR Stem-Loop Driven Prion Protein mRNA Translation in H4-C Neuroglioblastoma Cells. [Related pubchem assays: 1829 (Project Summary), 1814 (Primary HTS)]. It is filed as functional.
A short description of test [4]: Luminescence Cell-Based Dose Confirmation to Identify Activators of 5'UTR Stem-Loop Driven Alpha-Synuclein mRNA Translation in H4 Neuroglioblastoma Cells. [Related pubchem assays: 1829 (Project Summary), 1814 (Primary HTS)]. In kind it is functional.
Test [5] can be described thus: Luminescence Cell-Based Dose Response HTS to Identify Activators of Luciferase Translation or Activity in H4 […] Cells. [Related pubchem assays: 1829 (Project Summary), 1814 (Primary HTS)]. In kind it is functional.
A short description of test [6]: Luminescence Cell-Based Dose Response to Identify Activators of Luciferase Translation or Activity in H4-C Neuroglioblastoma Cells. [Related pubchem assays: 1829 (Project Summary), 1814 (Primary HTS)]. It is filed as functional.
In test [7] the target is Heat shock protein HSP 90-alpha (Homo sapiens, UniProt P07900). The test can be described thus: Luminescence-based dose response biochemical high throughput screening assay for inhibitors of the Heat Shock Protein 90 (HSP90). [Related pubchem assays: 1831 (Summary AID.), 1846 (Confirmation screen.), 1789 (Primary screen.)].
For test [8], the target named is Lytic switch protein BZLF1 (Epstein-Barr virus (strain B95-8) (HHV-4) (Human herpesvirus 4), UniProt P03206). Briefly: inhibition of BZLF1 ZTA DNA binding – biochemical, fluorescence polarization, Epstein-Barr virus, 1536-well, counter-screen for EBNA-1 inhibitor project, dose response (AID 2377).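 Further: fluorescence polarization of Cy5-labelled ZRE DNA probe bound by purified Zta.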 Details: species or system human gammaherpesvirus 4.
Test [9] concerns the target Epstein-Barr nuclear antigen 1 (Epstein-Barr virus (strain B95-8) (HHV-4) (Human herpesvirus 4), UniProt P03211). The test can be described thus: inhibition of EBV nuclear antigen 1 DNA binding – biochemical, fluorescence polarization, 1536-well, dose response (AID 2381).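 Further: fluorescence polarization of a Cy5 DNA probe bound by EBNA-1 protein.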 Details: species or system human gammaherpesvirus 4.
Test [10] can be described thus: Luminescence Cell-Based Dose Confirmation HTS to Identify Activators of 5'UTR Stem-Loop Driven Alpha-Synuclein mRNA Translation in H4 Neuroglioblastoma Cells. [Related pubchem assays: 1829 (Project Summary), 1814 (Primary HTS)]. It is filed as functional.
The next test has as its system H4. The test can be described thus: Luminescence Cell-Based Dose Response HTS to Identify Activators of 5'UTR Stem-Loop Driven Prion Protein mRNA Translation in H4 Neuroglioblastoma Cells. [Related pubchem assays: 1829 (Project Summary), 1814 (Primary HTS)]. It is filed as functional. Conditions: Homo sapiens.
In test [11] the target is Protein-tyrosine kinase 2-beta (Homo sapiens, UniProt Q14289).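 Further: potency of inhibitors of PYK2 kinase phosphorylation of poly-GT substrate.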
The nature of test [12]: viability of PTEN-deleted HCT116 cells – cell-based, HCT116 PTEN knockout, dose response (AID 1047).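 Further: HCT116 colon tumor cells with PTEN knocked out; cells exposed to compound for 60 hours before readout; potency for loss of cell viability measured by luminescence.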 In kind it is functional.
Test [13] is described as follows: viability of HCT116 lacking mutant beta-catenin – cell-based, human colon tumor, dose response (AID 1045).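 Further: HCT116 colon tumor cells with beta catenin knocked out; cells exposed to compound for 60 hours.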 In kind it is functional.
Test [14] can be described thus: NIH3T3 cell viability loss – ATP luminescence, mouse fibroblasts, counter-screen, dose response (AID 2010).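 Further: cells exposed to compound for about 90 hours before reading.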 It is filed as functional, cell-based.
Test [15] is described as follows: Trypanosoma cruzi growth suppression in host cells – NIH3T3 host cells, beta-gal luminescence, confirmation (AID 2044).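 Further: intracellular parasites grown in NIH/3T3 mouse fibroblasts as host cells; luminescent beta-galactosidase reporter signal from transgenic T. cruzi replicating inside host cells; inhibitors lower the luminescence signal.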 It is filed as functional, cell-based.
For test [16], the target named is Photoreceptor-specific nuclear receptor (Homo sapiens, UniProt Q9Y5X4). Briefly: ligands suppressing NR2E3 nuclear receptor activity – biochemical, TR-FRET, dose response (AID 463256). In kind it is functional.
Test [17] has as its target Peroxisome proliferator-activated receptor gamma/Nuclear receptor corepressor 2 (Homo sapiens, UniProt P37231+Q9Y618). The test can be described thus: Counterscreen for NR2E3 inverse agonists: TR-FRET-based biochemical high throughput dose response assay to identify inverse agonists of the interaction between peroxisome proliferator-activated receptor gamma (PPARg) and nuclear receptor co-repressor 2 (NCOR2). In kind it is functional.

Sequence of NADPH oxidase 1 (Q9Y5S8 whole entry): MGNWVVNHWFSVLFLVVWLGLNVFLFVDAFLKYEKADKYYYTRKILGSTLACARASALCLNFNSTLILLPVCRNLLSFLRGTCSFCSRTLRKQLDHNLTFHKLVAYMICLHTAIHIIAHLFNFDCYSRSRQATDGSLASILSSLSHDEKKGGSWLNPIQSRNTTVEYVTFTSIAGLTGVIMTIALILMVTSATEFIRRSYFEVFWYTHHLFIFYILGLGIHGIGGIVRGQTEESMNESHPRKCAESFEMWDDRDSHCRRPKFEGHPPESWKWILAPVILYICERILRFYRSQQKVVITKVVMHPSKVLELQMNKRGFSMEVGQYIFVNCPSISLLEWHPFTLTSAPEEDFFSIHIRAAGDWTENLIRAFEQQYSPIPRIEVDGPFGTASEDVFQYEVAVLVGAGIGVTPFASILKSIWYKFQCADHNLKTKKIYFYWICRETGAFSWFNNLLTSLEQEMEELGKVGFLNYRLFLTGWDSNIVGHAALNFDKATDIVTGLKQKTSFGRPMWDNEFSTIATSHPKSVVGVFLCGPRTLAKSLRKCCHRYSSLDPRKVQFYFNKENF
Sequence of Peroxisome proliferator-activated receptor gamma/Nuclear receptor corepressor 2 (P37231 whole entry): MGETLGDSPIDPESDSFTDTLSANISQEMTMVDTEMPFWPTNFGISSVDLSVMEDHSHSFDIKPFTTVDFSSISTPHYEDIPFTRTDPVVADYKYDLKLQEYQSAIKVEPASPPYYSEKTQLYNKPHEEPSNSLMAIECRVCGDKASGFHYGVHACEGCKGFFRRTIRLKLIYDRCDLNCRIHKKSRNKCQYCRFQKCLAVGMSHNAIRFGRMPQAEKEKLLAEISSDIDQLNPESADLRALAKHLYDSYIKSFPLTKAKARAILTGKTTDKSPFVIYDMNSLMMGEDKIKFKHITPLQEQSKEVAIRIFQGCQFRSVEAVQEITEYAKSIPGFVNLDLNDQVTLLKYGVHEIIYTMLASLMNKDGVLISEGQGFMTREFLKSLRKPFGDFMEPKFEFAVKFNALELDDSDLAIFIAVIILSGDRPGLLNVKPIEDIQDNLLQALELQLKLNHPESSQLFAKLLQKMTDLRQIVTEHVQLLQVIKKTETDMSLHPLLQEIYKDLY
Sequence of Peroxisome proliferator-activated receptor gamma/Nuclear receptor corepressor 2 (Q9Y618 whole entry): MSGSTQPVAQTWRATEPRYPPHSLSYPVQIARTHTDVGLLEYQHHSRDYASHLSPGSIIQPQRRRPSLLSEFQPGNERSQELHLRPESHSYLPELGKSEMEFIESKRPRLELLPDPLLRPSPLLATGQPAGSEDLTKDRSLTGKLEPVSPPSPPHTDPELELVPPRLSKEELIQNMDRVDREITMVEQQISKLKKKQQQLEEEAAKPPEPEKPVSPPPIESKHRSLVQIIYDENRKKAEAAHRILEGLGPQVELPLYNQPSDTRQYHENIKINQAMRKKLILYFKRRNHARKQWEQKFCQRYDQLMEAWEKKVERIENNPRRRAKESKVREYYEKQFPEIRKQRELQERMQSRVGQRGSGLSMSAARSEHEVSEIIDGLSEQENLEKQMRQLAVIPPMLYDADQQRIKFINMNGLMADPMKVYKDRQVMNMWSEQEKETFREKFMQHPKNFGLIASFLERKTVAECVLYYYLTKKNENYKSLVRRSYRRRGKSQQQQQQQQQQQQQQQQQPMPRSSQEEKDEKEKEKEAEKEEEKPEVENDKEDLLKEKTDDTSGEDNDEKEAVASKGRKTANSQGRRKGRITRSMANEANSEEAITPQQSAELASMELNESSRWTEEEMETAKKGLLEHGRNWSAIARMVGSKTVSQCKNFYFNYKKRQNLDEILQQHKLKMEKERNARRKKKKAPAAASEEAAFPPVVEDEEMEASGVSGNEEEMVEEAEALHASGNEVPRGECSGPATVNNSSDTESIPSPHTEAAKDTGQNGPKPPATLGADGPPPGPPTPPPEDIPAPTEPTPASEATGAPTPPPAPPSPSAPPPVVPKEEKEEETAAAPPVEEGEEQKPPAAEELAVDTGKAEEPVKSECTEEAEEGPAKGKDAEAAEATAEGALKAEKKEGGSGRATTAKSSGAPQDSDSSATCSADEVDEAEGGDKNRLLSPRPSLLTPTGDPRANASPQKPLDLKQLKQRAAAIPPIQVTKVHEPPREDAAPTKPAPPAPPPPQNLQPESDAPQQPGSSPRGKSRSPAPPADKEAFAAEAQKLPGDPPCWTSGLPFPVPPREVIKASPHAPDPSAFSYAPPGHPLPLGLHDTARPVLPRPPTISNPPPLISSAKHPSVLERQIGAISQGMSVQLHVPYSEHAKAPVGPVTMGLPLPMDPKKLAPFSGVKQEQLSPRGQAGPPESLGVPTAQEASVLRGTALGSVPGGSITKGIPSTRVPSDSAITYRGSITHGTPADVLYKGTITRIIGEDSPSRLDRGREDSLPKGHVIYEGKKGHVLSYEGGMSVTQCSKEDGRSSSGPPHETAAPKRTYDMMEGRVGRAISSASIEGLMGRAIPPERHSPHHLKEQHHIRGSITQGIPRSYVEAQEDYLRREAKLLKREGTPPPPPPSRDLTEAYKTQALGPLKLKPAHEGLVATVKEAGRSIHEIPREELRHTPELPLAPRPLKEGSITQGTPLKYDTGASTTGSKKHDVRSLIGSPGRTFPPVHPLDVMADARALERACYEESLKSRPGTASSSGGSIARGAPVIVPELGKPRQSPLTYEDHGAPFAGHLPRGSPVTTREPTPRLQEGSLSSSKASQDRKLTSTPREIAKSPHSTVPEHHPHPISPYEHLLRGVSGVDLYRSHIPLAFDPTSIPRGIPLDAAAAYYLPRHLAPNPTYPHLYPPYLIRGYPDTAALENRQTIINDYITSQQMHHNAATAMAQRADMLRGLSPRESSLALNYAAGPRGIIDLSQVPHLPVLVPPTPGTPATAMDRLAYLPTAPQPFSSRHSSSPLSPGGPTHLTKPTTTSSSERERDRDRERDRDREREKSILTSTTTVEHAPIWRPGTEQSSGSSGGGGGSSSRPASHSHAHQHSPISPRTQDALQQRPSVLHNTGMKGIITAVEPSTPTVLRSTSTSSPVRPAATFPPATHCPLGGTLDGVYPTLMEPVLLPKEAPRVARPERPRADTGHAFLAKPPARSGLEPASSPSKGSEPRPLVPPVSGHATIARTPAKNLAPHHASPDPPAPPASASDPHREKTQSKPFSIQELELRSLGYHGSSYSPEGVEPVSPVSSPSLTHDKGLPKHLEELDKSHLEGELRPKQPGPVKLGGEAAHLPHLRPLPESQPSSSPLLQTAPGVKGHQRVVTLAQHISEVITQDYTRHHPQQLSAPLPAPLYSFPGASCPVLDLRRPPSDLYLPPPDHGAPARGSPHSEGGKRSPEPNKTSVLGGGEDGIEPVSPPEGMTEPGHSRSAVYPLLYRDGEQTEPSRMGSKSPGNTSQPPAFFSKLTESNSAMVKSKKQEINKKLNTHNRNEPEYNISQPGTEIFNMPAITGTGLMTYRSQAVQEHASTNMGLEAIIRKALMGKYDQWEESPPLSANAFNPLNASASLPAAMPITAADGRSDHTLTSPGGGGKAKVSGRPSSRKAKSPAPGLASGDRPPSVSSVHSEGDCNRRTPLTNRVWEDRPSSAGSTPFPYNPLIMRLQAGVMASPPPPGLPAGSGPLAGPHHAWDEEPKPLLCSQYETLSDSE
Sequence of Lytic switch protein BZLF1 (P03206 whole entry): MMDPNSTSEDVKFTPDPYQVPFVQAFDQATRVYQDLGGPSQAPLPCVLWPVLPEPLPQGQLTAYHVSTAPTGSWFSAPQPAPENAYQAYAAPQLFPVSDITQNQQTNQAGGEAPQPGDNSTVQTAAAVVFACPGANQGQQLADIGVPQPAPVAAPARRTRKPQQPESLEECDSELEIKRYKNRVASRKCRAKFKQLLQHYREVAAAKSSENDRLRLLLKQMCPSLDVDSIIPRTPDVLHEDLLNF
Sequence of Epstein-Barr nuclear antigen 1 (P03211 whole entry): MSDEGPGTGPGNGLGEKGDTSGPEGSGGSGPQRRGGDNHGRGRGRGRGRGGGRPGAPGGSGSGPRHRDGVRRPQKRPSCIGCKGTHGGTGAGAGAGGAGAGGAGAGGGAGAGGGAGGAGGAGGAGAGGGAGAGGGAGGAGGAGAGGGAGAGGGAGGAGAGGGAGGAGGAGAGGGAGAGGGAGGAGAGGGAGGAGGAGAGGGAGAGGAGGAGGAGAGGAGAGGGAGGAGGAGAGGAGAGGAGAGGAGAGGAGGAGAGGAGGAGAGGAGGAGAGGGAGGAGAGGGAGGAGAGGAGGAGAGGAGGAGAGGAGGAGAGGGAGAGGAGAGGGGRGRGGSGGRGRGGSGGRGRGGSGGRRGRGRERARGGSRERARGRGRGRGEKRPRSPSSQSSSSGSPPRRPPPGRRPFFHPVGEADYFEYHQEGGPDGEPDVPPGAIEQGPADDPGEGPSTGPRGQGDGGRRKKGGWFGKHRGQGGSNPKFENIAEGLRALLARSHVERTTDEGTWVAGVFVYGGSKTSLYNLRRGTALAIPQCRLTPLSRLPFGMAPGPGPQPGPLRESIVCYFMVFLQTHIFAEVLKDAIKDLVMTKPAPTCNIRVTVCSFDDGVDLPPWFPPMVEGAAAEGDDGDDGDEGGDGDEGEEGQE
Sequence of Photoreceptor-specific nuclear receptor (Q9Y5X4 whole entry): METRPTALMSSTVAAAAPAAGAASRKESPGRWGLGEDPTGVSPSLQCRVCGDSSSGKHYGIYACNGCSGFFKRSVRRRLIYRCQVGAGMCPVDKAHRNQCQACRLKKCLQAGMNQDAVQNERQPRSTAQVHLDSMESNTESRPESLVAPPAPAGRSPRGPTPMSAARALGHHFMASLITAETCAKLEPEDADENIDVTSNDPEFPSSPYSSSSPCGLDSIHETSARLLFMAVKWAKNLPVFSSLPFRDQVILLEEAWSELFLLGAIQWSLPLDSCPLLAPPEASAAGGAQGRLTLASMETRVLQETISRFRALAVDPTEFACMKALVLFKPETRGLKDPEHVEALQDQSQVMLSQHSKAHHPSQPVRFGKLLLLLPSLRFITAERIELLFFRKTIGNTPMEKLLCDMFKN
Sequence of Protein Tat (P04608 whole entry): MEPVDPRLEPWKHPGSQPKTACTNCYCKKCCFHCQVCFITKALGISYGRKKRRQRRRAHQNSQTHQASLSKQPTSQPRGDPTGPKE

For the molecule `O=C(O)CSCC(=O)Nc1ccc(-c2nc3ccccc3s2)cc1`, in test [1], the IC50 is 86.8 µM (active).
`COc1ccc(-c2nc(-c3ccc(O)cc3)[nH]c2-c2ccc(OC)cc2)cc1`: the IC50 on NADPH oxidase 1 was 9.01 µM (active).
Regarding `O=C(O)c1cc(-c2ccc(N3CCOCC3)cc2)nn1-c1ccc(F)cc1F`, the half-maximal inhibitory concentration (IC50) (in test [2]; at Protein Tat) was > 100 µM (active) each time. Besides, the AC50 is 13.5 µM (active) on CAAX prenyl protease 2 and 6.65 µM (active) at Trypsin.
Turning to `Cc1ccc(C(=O)Nc2ccc(C(F)(F)F)n(C)c2=O)cc1`, the EC50 in test [3] is 0.317 µM (active); in test [4] it was 0.311 µM (active); in test [5] it was < 0.1 µM (inconclusive); in test [6], 0.305 µM (active).
As for `C=CCOC(=O)c1sc(NC(=O)c2ccc(OC)cc2)nc1C`, in test [7], the IC50 is 3.58 µM (active).
With `CCOC(=O)N1CCc2c(sc(NC(=O)C3COc4ccccc4O3)c2C(N)=O)C1` (stereo unspecified), the results for the IC50 in [8] and in test [9] were > 111 µM (not active) and 15.3 µM (not active), respectively.
For the molecule `O=C1c2ccccc2S(=O)(=O)N1CC1CC(c2ccc(Cl)cc2)=NO1` (stereo unspecified), the EC50 in test [10] was < 0.1 µM (active); in the test with H4 it was 9.96 µM (active); in [3], 0.805 µM (active); in test [4], 0.435 µM (active); in [5], < 0.1 µM (active); in test [6], 0.407 µM (active).
With `CN1CCc2c(sc3ncn4nc(-c5ccccc5O)nc4c23)C1`, in test [11], the IC50 is on record as 17.9 µM (not active). In addition, the EC50 in [12] was 13.4 µM (active); in test [13] it was 10.4 µM (active).
Turning to `CC(=O)Nc1ccc(NC(=O)Cc2sc(-c3cccnc3)nc2-c2ccc(C)cc2)cc1`, the IC50 in test [8] was > 111 µM (not active); in test [9], > 5.47 µM (active). The EC50 is > 60 µM (not active) in test [14] and 1.28 µM (active) in test [15].
Regarding `COc1cccc(OC(=O)c2sc3ccccc3c2Cl)c1`, the IC50 on NADPH oxidase 1 was > 17 µM (not active).
As to `Cc1ccc2c(Cl)c(C(=O)Nc3cc(C)on3)sc2c1`, the figures for the IC50 in [16] and in test [17] were 12.7 µM (not active) and 14.1 µM (not active), respectively.
As to `O=C(Nc1cccc(-c2nc3cccnc3s2)c1)c1ccc(Cl)nc1`, the results for the concentration for half-maximal inhibition (IC50) in [16] and in test [17] were 3.37 µM (active) and 1.8 µM (active), respectively.
